Our source for the IC50 values is US20250214977A1, “STAT6 INHIBITORS AND USES THEREOF” (Kymera Therapeutics, Inc., priority 2024, published 2025).

The structures appear in SMILES notation. Bounds are passed on as bounds.

One assay has as its system Phosphorylation of STAT6 in human A549 cells. The assay can be described thus: Phosphorylated STAT6 (pSTAT6) flow cytometry assay in human A549 cells. The format is cell-based. Particulars: listed as I-391, read-out: STAT6 IL4 pSTAT6 assay in A549 cells: Average IC50. An excerpt:
Example 3. Phosphorylated STAT6 (pSTAT6) Flow Cytometry Assay in Human A549 Cells
Phosphorylation of STAT6 in human A549 cells was quantitatively measured using flow cytometry technology.
For orientation: IC50 means the point on the concentration scale where inhibition reaches its midpoint. On to `COc1cc(F)cnc1N1CCN(C(=O)c2cc3c([C@H]4CCCN4C)cc(C4=CCCN(C(=O)CCn5ccnn5)C4)c(F)c3[nH]2)CC1` (single isomer, unassigned) [Example I-814], for which the IC50 is less than 100 nM.

The same assay, now with this note: read-out: STAT6 IL4 pSTAT6 assay in A549 cells: Average IC50.
`CCc1ncccc1-c1cc(C(=O)N2CCN(c3ncc(F)cc3OC)CC2)cc2cc(C3=CCCN(C(=O)C(=O)O)C3)n(CC3CC3)c12` [Example I-797]: the IC50 was more than 100000 nM.

For the compound `COc1cc(F)cnc1N1CCN(C(=O)c2cc3c([C@H]4CCCN4C)cc(C4=CCCN(C(=O)CCn5ccnn5)C4)c(F)c3[nH]2)CC1` (single isomer, unassigned) [Example I-814], the IC50 was more than 100000 nM.

As to `COc1ccncc1-c1cc(C2=CCCN(C(=O)CCn3ccnn3)C2)c(F)c2[nH]c(C(=O)N3CCN(c4ccc(Cl)cc4OC)CC3)cc12` [Example I-450], the IC50 is less than 100 nM.

Regarding `COc1ccc(Cl)c(-c2cc(C3=CCCN(C(=O)CCn4ccnn4)C3)cc3[nH]c(C(=O)N(C)C)cc23)c1` [Example I-1062], the IC50 is less than 100 nM.

As for `Cc1c[nH]c2ncc(-c3cc(C4=CCCN(C(=O)CCn5ccnn5)C4)c(F)c4cc(C(=O)N(C)C)oc34)cc12` [Example I-1100], the half-maximal inhibitory concentration (IC50) was less than 100 nM.

Consider `COc1cc(F)cnc1N1CCN(C(=O)c2cc3c(/C=C/C4CCCCC4)cc(C4=CCCN(C(=O)CCn5ccnn5)C4)c(F)c3[nH]2)CC1` [Example I-1163], for which the IC50 was in the range of 100 to 1000 nM.

Take `COc1cc(F)cnc1N1CCN(C(=O)c2cc3c(C4=CCCC4)cc(C4=CCCN(C(=O)CCn5ccnn5)C4)c(F)c3[nH]2)CC1` [Example I-1134]: the IC50 is less than 100 nM.

Take `COc1cccnc1N1CCN(C(=O)c2cc3c(-c4cnc5ccccc5c4OC)cc(C4=CCCN(C(=O)CCn5ccnn5)C4)c(F)c3[nH]2)CC1` [Example I-402]: the IC50 is more than 100000 nM.

As to `COc1ccccc1-c1cc(C2=CCCN(C(=O)CCn3ccnn3)C2)c(F)c2[nH]c(C(=O)N3CCN(c4ccn5nc(C)nc5c4)CC3)cc12` [Example I-919], the concentration for half-maximal inhibition (IC50) was less than 100 nM.

Turning to `COc1cnccc1-c1cc(C2=CCCN(C(=O)CCn3ccnn3)C2)c(F)c2[nH]c(C(=O)N3CCN(C4CC4)CC3)cc12` [Example I-605], the IC50 was less than 100 nM.

Regarding `CCc1ccccc1-c1cc(C2=CCCN(C(=O)CCn3ccnn3)C2)c(F)c2[nH]c(C(=O)N3Cc4cnn(C)c4C3)cc12` [Example I-700], the IC50 was in the range of 10000 to 100000 nM.

`COc1ncccc1-c1cc(C2=CCCN(C(=O)CCn3ccnn3)C2)c(F)c2[nH]c(C(=O)N3CCN(c4ncccc4OC4CC4)CC3)cc12` [Example I-595]: the IC50 is less than 100 nM.

`CN(C)C(=O)c1cc2cc(C3=CCCN(C(=O)CCn4ccnn4)C3)cc(-c3cnn(C)c3)c2o1` [Example I-1077]: the IC50 was less than 100 nM.

In the case of `COc1ccccc1-c1cc(C2=CCCN(C(=O)CCn3ccnn3)C2)c(F)c2[nH]c(C(=O)N3CCN(c4nccc(-c5ccccc5)n4)CC3)cc12` [Example I-904], the IC50 was 100 to 1000 nM.

Regarding `COc1ccccc1-c1cc(C2=CCCN(C(=O)CCn3ccnn3)C2)c(F)c2[nH]c(C(=O)N3CCN(c4cc(F)c(F)c5ccc(C)nc45)CC3)cc12` [Example I-907], the IC50 is less than 100 nM.

Regarding `CCc1nc(C)ccc1-c1cc(C(=O)N2CCN(c3nc(C)c(F)cc3OC)CC2)cc2cc(C3=CCCN(C(=O)CCn4ccnn4)C3)n(CC3CC3)c12` [Example I-546], the IC50 is more than 100000 nM.

`COc1ccccc1-c1cc(C2=CCCN(C(=O)CCn3ccnn3)C2)c(F)c2[nH]c(C(=O)N3CCN(c4ccccc4C(F)(F)F)CC3)cc12` [Example I-968]: the IC50 was in the range of 100 to 1000 nM.

In the case of `COc1ccccc1-c1cc(C2=CCCN(C(=O)CCn3ccnn3)C2)c(F)c2[nH]c(C(=O)N3CCN(c4[nH]ncc4OC)CC3)cc12` [Example I-508], the IC50 is less than 100 nM.

`COc1ccccc1-c1cc(C2=CCCN(C(C)=O)C2)cc2[nH]c(C(=O)N(C)C)cc12` [Example I-1091]: the IC50 lay in the range of 100 to 1000 nM.

With `CCOc1ccncc1-c1cc(C2=CCCN(C(=O)CCn3ccnn3)C2)c(F)c2[nH]c(C(=O)N3CCN(c4ccnnc4OC)CC3)cc12` [Example I-483], the IC50 is less than 100 nM.

Regarding `CCOCc1cc(-c2cc(C3=CCCN(C(=O)CCn4ccnn4)C3)c(F)c3[nH]c(C(=O)N4CCN(c5ncc(F)cc5OC)CC4)cc23)ccc1F` [Example I-1128], the IC50 is less than 100 nM.

For the compound `COc1ccccc1-c1cc(C2=CCCN(C(=O)CCn3ccnn3)C2)c(F)c2[nH]c(C(=O)N3CCN(c4cccc(OC(F)(F)F)n4)CC3)cc12` [Example I-430], the IC50 was 100 to 1000 nM.

`CCc1ccncc1-c1cc(C2=CCCN(C(=O)C(C)C)C2)c(F)c2[nH]c(C(=O)N3CCN(c4ncc(F)cc4OC)CC3)cc12` [Example I-1044]: the half-inhibitory concentration (IC50) lay in the range of 1000 to 10000 nM.

Take `COc1cc(F)cnc1N1CCN(C(=O)c2cc3c(C4=CCN(C5CC5)CC4)cc(C4=CCCN(C(=O)CCn5ccnn5)C4)c(F)c3[nH]2)CC1` [Example I-1131]: the IC50 is less than 100 nM.

Regarding `COc1cc(F)cnc1N1CCN(C(=O)c2cc3c(-c4cncc(C5CC5)c4)cc(C4=CCCN(C(=O)CCn5ccnn5)C4)c(F)c3[nH]2)CC1` [Example I-637], the IC50 was less than 100 nM.

For `COc1cnccc1-c1cc(C2=CCCN(C(C)=O)C2)c(F)c2[nH]c(C(=O)N3CCN(c4ncc(F)cc4OC)CC3)cc12` [Example I-697], the IC50 was more than 100000 nM.

As to `COc1cc(F)cnc1N1CCN(C(=O)c2cc3c(-c4ccc(C(=O)N5CCCC5)cc4F)cc(C4=CCCN(C(=O)CCn5ccnn5)C4)c(F)c3[nH]2)CC1` [Example I-1143], the half-maximal inhibitory concentration (IC50) was less than 100 nM.

As for `COc1ccccc1-c1cc(C2=CCCN(C(=O)CCn3ccnn3)C2)c(F)c2[nH]c(C(=O)N3CCN(c4cnc5ncccn45)CC3)cc12` [Example I-1017], the IC50 is less than 100 nM.

On to `COc1cc(F)cnc1N1CCN(C(=O)c2cc3c(C=C4CCOCC4)cc(C4=CCCN(C(=O)CCn5ccnn5)C4)c(F)c3[nH]2)CC1` [Example I-644], for which the half-maximal inhibitory concentration (IC50) is less than 100 nM.

For `COc1ccccc1-c1cc(C2=CCCN(C(=O)CCn3ccnn3)C2)c(F)c2[nH]c(C(=O)N3Cc4cccc(F)c4C3)cc12` [Example I-982], the IC50 is more than 100000 nM.

For `COc1ccccc1-c1cc(C2=CCCN(C(=O)CCn3ccnn3)C2)c(F)c2[nH]c(C(=O)N3CCN(c4ncc(C)cc4OC)CC3)cc12` [Example I-939], the IC50 is less than 100 nM.

In the case of `COc1cc(C)c(N2CCN(C(=O)c3cc4c(-c5ccccc5OC)cc(C5=CCCN(C(=O)CCn6ccnn6)C5)c(F)c4[nH]3)CC2)c(C)n1` [Example I-958], the 50% inhibitory concentration (IC50) was in the range of 100 to 1000 nM.

On to `CCOc1cccnc1N1CCN(C(=O)c2cc3c(-c4cnccc4OC)cc(C4=CCCN(C(=O)CCn5ccnn5)C4)c(F)c3[nH]2)CC1` [Example I-564], for which the IC50 was less than 100 nM.

For `COc1cc(F)cnc1N1CCN(C(=O)c2cc3c(-c4cnn(C)c4-c4ccccc4)cc(C4=CCCN(C(=O)CCn5ccnn5)C4)c(F)c3[nH]2)CC1` [Example I-621], the IC50 is less than 100 nM.

Regarding `COc1cc(C)c(-c2cc(C3=CCCN(C(=O)CCn4ccnn4)C3)cc3cc(C(=O)N(C)C)oc23)cc1C` [Example I-1078], the IC50 was less than 100 nM.

Take `COc1ccncc1-c1cc(C2=CCCN(C(C)=O)C2)c(F)c2[nH]c(C(=O)N(C)C)cc12` [Example I-1094]: the IC50 is less than 100 nM.

Regarding `CCc1nc(C)ccc1-c1cc(C(=O)N2CCN(c3ncc(F)cc3OC)CC2)cc2cc(C3=CCCN(C(=O)CCc4nccs4)C3)n(CC3CC3)c12` [Example I-523], the IC50 was less than 100 nM.

Consider `COc1cccnc1N1CCN(C(=O)c2cc3c(-c4ccccc4C#N)cc(C4=CCCN(C(=O)CCn5ccnn5)C4)c(F)c3[nH]2)CC1` [Example I-573], for which the IC50 was less than 100 nM.

In the case of `CNc1ccc(-c2cc(C3=CCCN(C(=O)CCn4ccnn4)C3)cc3[nH]c(C(=O)N(C)C)cc23)c(C)c1` [Example I-1053], the IC50 was less than 100 nM.

As to `COCOc1cc(F)ccc1-c1cc(C2=CCCN(C(=O)CCn3ccnn3)C2)c(F)c2[nH]c(C(=O)N3CCN(c4ncc(F)cc4OC)CC3)cc12` [Example I-670], the IC50 was less than 100 nM.

`COc1cc(F)cnc1N1CCN(C(=O)c2cc3c(-c4ccc(C(C)(C)C#N)cc4)cc(C4=CCCN(C(=O)CCn5ccnn5)C4)c(F)c3[nH]2)CC1` [Example I-1142]: the IC50 is less than 100 nM.

In the case of `COc1ccccc1-c1cc(C2=CCCN(C(=O)CCn3ccnn3)C2)c(F)c2[nH]c(C(=O)N3CCN(Cc4c(C)nn(C)c4C)CC3)cc12` [Example I-1182], the IC50 is less than 100 nM.

Turning to `CCc1ccc(OC)c(N2CCN(C(=O)c3cc4c(-c5cnccc5OC)cc(C5=CCCN(C(=O)CCn6ccnn6)C5)c(F)c4[nH]3)CC2)n1` [Example I-466], the IC50 is less than 100 nM.

`COc1ccccc1-c1cc(C2=CCCN(C(=O)CCn3ccnn3)C2)c(F)c2[nH]c(C(=O)N3CCN(c4cn5ccnc5cc4C)CC3)cc12` [Example I-915]: the IC50 was less than 100 nM.

On to `COc1cc(F)cnc1N1CCN(C(=O)c2cc3c(-c4ccccc4C4CC4)cc(C4=CCCN(C(=O)CCn5ccnn5)C4)c(F)c3[nH]2)CC1` [Example I-645], for which the IC50 is less than 100 nM.

Take `COc1ccccc1-c1cc(C2=CCCN(C(=O)CCn3ccnn3)C2)c(F)c2[nH]c(C(=O)N3CCN(c4ncccc4Cl)CC3)cc12` [Example I-324]: the IC50 was less than 100 nM.

For `COc1ccccc1-c1cc(C2=CCCN(C(=O)CCn3ccnn3)C2)c(F)c2[nH]c(C(=O)N3CCN(c4cc(C)cc(Br)c4OC)CC3)cc12` [Example I-964], the IC50 was 100 to 1000 nM.

On to `CCc1nccn1-c1cc(C2=CCCN(C(=O)CCn3ccnn3)C2)c(F)c2[nH]c(C(=O)N3CCN(c4ncccc4OC)CC3)cc12` [Example I-692], for which the half-inhibitory concentration (IC50) is more than 100000 nM.

For the compound `COc1ccccc1-c1cc(C2=CCCN(C(=O)CCn3ccnn3)C2)c(F)c2[nH]c(C(=O)N3CCN(c4scnc4C)CC3)cc12` [Example I-777], the IC50 is less than 100 nM.

For the compound `CCc1ccncc1-c1cc(C2=CCCN(C(C)=O)C2)c(F)c2[nH]c(C(=O)N3Cc4cnn(C)c4C3)cc12` [Example I-702], the IC50 was 10000 to 100000 nM.

`COc1cnccc1-c1cc(C2=CCCN(C(=O)CCn3cccn3)C2)c(F)c2[nH]c(C(=O)N3CCN(c4ncc(F)cc4OC)CC3)cc12` [Example I-663]: the IC50 was less than 100 nM.

For the compound `COc1ccccc1-c1cc(C2=CCCN(C(C)=O)C2)c(F)c2[nH]c(C(=O)N3CCN(c4ncccc4OC)CC3)cc12` [Example I-553], the IC50 was in the range of 100 to 1000 nM.
